Values of other authors in US20090214648A1 (priority 2008, published 2009).

What was measured:
[1] = in vivo

CC(C)Cc1ccc(C(C)C(=O)O)cc1 (stereo not shown) [Ibuprofen, 2-[4-(2-methylpropyl)phenyl]propanoic acid]
Inhibition of cyclooxygenase (enzyme cyclooxygenase): potent inhibitor
Dose excreted in the urine [1]: more than 90%
Dose excreted unchanged [1]: Less than 10%
Time until excretion is essentially complete [1]: ≤ 24 h
